# From patent US5719291A, “Cyclohexane derivatives” (Hoffmann-La Roche Inc., priority 1991, dated 1998)
# Where a name gives a salt, the structure may show the parent alone.
# Assays:
# [1] = Acute toxicity (LD50) by oral administration in mice; format: in vivo; details: mouse, in vivo, read-out: LD50
# Aspergillus fumigatus = test: In vitro antifungal activity, MIC (Method A); format: cell-based; details: Aspergillus fumigatus, 72 h, 3 days, 27° C.
# Outline: (§1)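 MIC, the lowest concentration with no visible growth, by NCCLS microbroth dilution in Yeast Nitrogen Base solidified with 0.2% low-melting agarose, pH 7.0 with 0.25% K2HPO4. Inoculum 1×10^5 cells/ml; read after 3 days at 27° C.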
# Cryptococcus neoformans = test: In vitro antifungal activity, MIC (Method A); format: cell-based; details: Cryptococcus neoformans, 72 h, 3 days, 27° C.
# Outline: as §1
# Candida albicans = test: In vitro antifungal activity, MIC (Method A); format: cell-based; details: Candida albicans, 72 h, 3 days, 27° C.
# Outline: as §1
smiles,measurement,setting,value
"CCCCCCC/C=C/[C@@H]1OC[C@H](C)[C@H](OC)[C@H]1OC(=O)CN [Example 4, (2S,3R,4S,5S)-4-methoxy-5-methyl-2-[(E)-1-nonenyl]-tetrahydro-2H-pyran-3-ylglycinate trifluoroacetic acid salt]",LD50,[1],> 500 mg/kg
same,MIC,"Aspergillus fumigatus; pH 7, Aspergillus fumigatus CF1003, 1×10^5 cells/ml",3.13 µg/mL
same,MIC,"Aspergillus fumigatus; pH 7, Aspergillus fumigatus CF1004, 1×10^5 cells/ml",3.13 µg/mL
same,MIC,"Aspergillus fumigatus; pH 7, Aspergillus fumigatus CF1023, 1×10^5 cells/ml",1.56 µg/mL
same,MIC,"Cryptococcus neoformans; pH 7, Cryptococcus neoformans CY1057, 1×10^5 cells/ml",3.13 µg/mL
same,MIC,"Cryptococcus neoformans; pH 7, Cryptococcus neoformans CY1059, 1×10^5 cells/ml",6.25 µg/mL
same,MIC,"Cryptococcus neoformans; pH 7, Cryptococcus neoformans CY1061, 1×10^5 cells/ml",12.5 µg/mL
same,MIC,"Candida albicans; pH 7, Candida albicans CY1002, 1×10^5 cells/ml",100 µg/mL
same,MIC,"Candida albicans; pH 7, Candida albicans CY1005, 1×10^5 cells/ml",50 µg/mL
same,MIC,"Candida albicans; pH 7, Candida albicans CY3003, 1×10^5 cells/ml",50 µg/mL
